Measured values taken from article PMC3638264 (Journal of Medicinal Chemistry, 2013).
Changes are numbered by the printed parent chain.

Tests used:
AKR1C3 = target: T1, AKR1C3 (Homo sapiens, UniProt P42330); assay: AKR1C3 inhibition, NADP+ dependent oxidation of S-tetralol; conditions: for loss of AKR1C3 potency: relative to 44; for loss of inhibitory potency for AKR1C3: relative to indomethacin (1)
T1 sequence (P42330 1-323): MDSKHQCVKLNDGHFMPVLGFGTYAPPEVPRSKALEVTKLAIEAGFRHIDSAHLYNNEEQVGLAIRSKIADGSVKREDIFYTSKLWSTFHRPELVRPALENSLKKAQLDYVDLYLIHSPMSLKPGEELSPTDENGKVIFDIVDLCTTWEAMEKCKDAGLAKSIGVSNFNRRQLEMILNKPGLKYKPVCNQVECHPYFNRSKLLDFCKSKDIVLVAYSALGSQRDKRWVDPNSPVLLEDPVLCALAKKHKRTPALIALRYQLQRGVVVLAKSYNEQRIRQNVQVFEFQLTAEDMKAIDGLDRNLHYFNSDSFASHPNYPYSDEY

oCOX-1 = target: T2, oCOX-1 (Ovis aries, UniProt P05979); assay: continuous colorimetric COX-1 assay; format: biochemical, ovine; conditions: for inhibitory activity on COX-1 at highest concentration tested: 100 μM inhibitor
T2 sequence (P05979 25-600): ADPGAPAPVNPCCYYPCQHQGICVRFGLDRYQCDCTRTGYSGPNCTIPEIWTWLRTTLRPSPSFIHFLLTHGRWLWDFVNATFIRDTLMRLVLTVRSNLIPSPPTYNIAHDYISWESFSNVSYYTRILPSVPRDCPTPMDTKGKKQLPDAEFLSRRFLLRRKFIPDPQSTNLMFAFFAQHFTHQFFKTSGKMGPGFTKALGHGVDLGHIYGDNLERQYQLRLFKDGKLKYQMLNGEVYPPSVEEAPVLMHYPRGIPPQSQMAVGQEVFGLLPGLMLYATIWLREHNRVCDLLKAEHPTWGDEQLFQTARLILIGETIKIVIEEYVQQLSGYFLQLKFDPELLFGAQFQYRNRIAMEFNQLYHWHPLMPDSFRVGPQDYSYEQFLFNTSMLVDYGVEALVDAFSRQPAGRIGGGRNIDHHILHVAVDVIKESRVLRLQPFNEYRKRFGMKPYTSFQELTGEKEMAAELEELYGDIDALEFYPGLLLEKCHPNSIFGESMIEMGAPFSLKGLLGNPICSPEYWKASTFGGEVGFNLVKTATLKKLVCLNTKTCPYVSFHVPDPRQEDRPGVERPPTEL

LNCaP-AKR1C3 cells = assay: inhibition of testosterone formation in LNCaP-AKR1C3 cells; format: cell-based; conditions: 30 μM inhibitor, 0.1 μM Δ4-AD, 48 h
ovine COX-1 = target: T3, ovine COX-1 (Ovis aries, UniProt P05979); assay: discontinuous 14C-AA TLC-based COX assay, COX-1; conditions: for inhibition at 25 µM: read-out: oCOX 1 % inhib. @ 25 μM, 25 μM inhibitor, 5 μM AA
T3 sequence (P05979 25-600): T2 sequence (P05979 25-600)

mouse COX-2 = target: T4, mouse COX-2 (Mus musculus, UniProt Q05769); assay: discontinuous 14C-AA TLC-based COX assay, COX-2; conditions: for inhibition at 25 µM: read-out: wt mCOX 2 % inhib. @ 25 μM, 25 μM inhibitor, 5 μM AA; for wt mCOX 2 plateau of inhibition (P @ %): plateau at higher inhibitor concentrations
T4 sequence (Q05769 18-604): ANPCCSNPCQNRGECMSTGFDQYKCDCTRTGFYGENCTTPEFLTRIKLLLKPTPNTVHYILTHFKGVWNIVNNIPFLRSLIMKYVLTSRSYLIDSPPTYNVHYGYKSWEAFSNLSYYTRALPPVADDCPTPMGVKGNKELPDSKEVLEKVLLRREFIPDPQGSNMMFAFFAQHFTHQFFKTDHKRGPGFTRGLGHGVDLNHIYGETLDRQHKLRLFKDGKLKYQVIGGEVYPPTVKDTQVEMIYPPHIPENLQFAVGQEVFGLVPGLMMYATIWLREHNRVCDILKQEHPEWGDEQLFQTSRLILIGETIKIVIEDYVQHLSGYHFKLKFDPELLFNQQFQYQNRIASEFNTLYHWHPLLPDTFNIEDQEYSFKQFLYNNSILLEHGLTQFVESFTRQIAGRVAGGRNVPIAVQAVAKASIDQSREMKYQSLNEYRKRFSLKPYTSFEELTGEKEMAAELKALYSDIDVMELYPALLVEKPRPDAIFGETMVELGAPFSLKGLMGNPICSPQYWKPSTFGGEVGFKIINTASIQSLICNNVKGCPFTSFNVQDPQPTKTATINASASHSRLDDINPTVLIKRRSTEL

AKR1C2 = target: T5, AKR1C2 (Homo sapiens, UniProt P52895); assay: AKR1C2 inhibition, NADP+ dependent oxidation of S-tetralol; conditions: for IC50 Ratio 1C2/1C3: selectivity for AKR1C3 over AKR1C2
T5 sequence (P52895 1-323): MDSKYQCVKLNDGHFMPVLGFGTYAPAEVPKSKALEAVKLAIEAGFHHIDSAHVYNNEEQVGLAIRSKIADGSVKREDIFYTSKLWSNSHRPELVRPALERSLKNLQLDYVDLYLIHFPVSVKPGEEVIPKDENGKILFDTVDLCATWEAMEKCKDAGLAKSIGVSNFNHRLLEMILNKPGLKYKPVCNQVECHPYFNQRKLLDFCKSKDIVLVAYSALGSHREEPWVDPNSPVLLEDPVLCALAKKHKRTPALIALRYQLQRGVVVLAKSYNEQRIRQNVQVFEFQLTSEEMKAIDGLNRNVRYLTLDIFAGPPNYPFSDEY

AKR1C1 = target: T6, AKR1C1 (Homo sapiens, UniProt Q04828); format: biochemical; conditions: selectivity for AKR1C3 over AKR1C1
T6 sequence (Q04828 1-323): T5 sequence (P52895 1-323) with V38T, H47R, V54L, S87C, M151V, H170R, L172Q

AKR1C4 = target: T7, AKR1C4 (Homo sapiens, UniProt P17516); format: biochemical; conditions: selectivity for AKR1C3 over AKR1C4
T7 sequence (P17516 1-323): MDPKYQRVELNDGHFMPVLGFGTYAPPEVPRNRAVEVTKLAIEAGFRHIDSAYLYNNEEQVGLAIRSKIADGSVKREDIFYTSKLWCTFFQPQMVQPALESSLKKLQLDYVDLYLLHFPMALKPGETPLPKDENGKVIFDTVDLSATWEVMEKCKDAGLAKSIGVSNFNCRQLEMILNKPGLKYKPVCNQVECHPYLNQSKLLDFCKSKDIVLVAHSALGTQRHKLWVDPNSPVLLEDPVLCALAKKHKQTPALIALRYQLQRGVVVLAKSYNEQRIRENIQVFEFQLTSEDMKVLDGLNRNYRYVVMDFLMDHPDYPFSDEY

## COc1ccc2c(c1)c(CC(=O)O)cn2C(=O)c1ccc(Cl)cc1 [Compound 20, 2-(1-(4-Chlorobenzoyl)-5-methoxy-1H-indol-3-yl)acetic Acid]
AKR1C3
  slope factor of inhibition dose–response curve: 1

## COc1ccc2c(c1)c(C)c(CC(C)C(=O)O)n2C(=O)c1ccc(Cl)cc1 (centres unmarked) [Compound 49, 3-(1-(4-Chlorobenzoyl)-5-methoxy-3-methyl-1H-indol-2-yl)-2-methylpropanoic Acid]
AKR1C3
  loss of AKR1C3 potency: 2 fold

## COc1ccc2c(c1)c(C)c(CCC(=O)NS(C)(=O)=O)n2C(=O)c1ccc(Cl)cc1 [Compound 50, 3-(1-(4-Chlorobenzoyl)-5-methoxy-3-methyl-1H-indol-2-yl)-N-(methylsulfonyl)propanamide]
oCOX-1
  IC50: > 100 µM
  inhibitory activity on COX-1 at highest concentration tested: did not display significant inhibitory activity
LNCaP-AKR1C3 cells
  inhibition of testosterone formation: robust inhibition
Ovine COX-1
  inhibition at 25 µM: ≤ 34%
Mouse COX-2
  inhibition at 25 µM: ≤ 34%
AKR1C3
  loss of AKR1C3 potency: 3 fold

## COC(=O)Cc1cn(C(=O)c2ccc(Cl)cc2)c2ccc(OC)cc12 [Compound 21]
AKR1C2
  IC50 Ratio 1C2/1C3: >8

## COc1ccc2c(c1)c(CC(=O)NS(=O)(=O)C(F)(F)F)cn2C(=O)c1ccc(Cl)cc1 [Compound 27, 2-(1-(4-Chlorobenzoyl)-5-methoxy-1H-indol-3-yl)-N-((trifluoromethyl)sulfonyl)acetamide]
oCOX-1
  IC50: 2.19 µM

## COc1ccc(C(=O)n2c(C)c(CC(=O)O)c3cc(OC)ccc32)cc1 [Compound 4]
AKR1C2
  selectivity for AKR1C3 over AKR1C2: over 300 fold

## COc1ccc2c(c1)c(CC(=O)NS(C)(=O)=O)c(C)n2C(=O)c1ccc(Cl)cc1 [Compound 14, 2-(1-(4-Chlorobenzoyl)-5-methoxy-2-methyl-1H-indol-3-yl)-N-(methylsulfonyl)acetamide]
AKR1C3
  loss of inhibitory potency for AKR1C3: 22 fold

## COc1ccc2c(c1)c(CC(=O)O)cn2C(=O)c1ccc(F)cc1 [Compound 22]
AKR1C2
  IC50 Ratio 1C2/1C3: >20

## O=C(O)Cc1cn(C(=O)c2ccc(Cl)cc2)c2ccc(F)cc12 [Compound 25]
AKR1C2; relative to des-methyl-indomethacin (20)
  increase in AKR1C2 inhibitory potency: 4 fold

## COc1ccc2c(c1)c1c(n2C(=O)c2ccc(Cl)cc2)CC(C(=O)O)CC1 (centres unmarked) [Compound 64, 9-(4-Chlorobenzoyl)-6-methoxy-2,3,4,9-tetrahydro-1H-carbazole-2-carboxylic Acid]
Ovine COX-1
  IC50: 2.4 µM
Ovine COX-1; plateau at higher inhibitor concentrations
  oCOX 1 plateau of inhibition (P @ %): 56.1%
Mouse COX-2
  IC50: 1.48 µM
  wt mCOX 2 plateau of inhibition (P @ %): 62.6%

## COc1ccc2c(c1)c(C)c(CCC(=O)O)n2C(=O)c1ccc(Cl)cc1 [Compound 44, 3-(1-(4-Chlorobenzoyl)-5-methoxy-3-methyl-1H-indol-2-yl)propanoic Acid]
oCOX-1
  IC50: > 100 µM
  inhibitory activity on COX-1 at highest concentration tested: did not display significant inhibitory activity
LNCaP-AKR1C3 cells
  inhibition of testosterone formation: robust inhibition
Mouse COX-2; read-out: wt mCOX 2 % inhib. @ 4 μM, 4 μM inhibitor, 5 μM AA
  inhibition at 4 µM: < 18%
Mouse COX-2
  inhibition at 25 µM: ≤ 34%

## COc1ccc2c(c1)c(CCC(=O)O)c(C)n2C(=O)c1ccc(Cl)cc1 [Compound 16, 3-(1-(4-Chlorobenzoyl)-5-methoxy-2-methyl-1H-indol-3-yl)propanoic Acid]
oCOX-1
  IC50: 48.8 µM

## COc1ccc2c(c1)cc(C)n2C(=O)c1ccc(Cl)cc1 [Compound 19]
AKR1C3
  loss of inhibitory potency for AKR1C3: 36 fold

## COc1ccc2c(c1)c(CC(=O)O)c(C)n2C(=O)c1ccc(Cl)cc1 [Compound 1, 2-(1-(4-chlorobenzoyl)-5-methoxy-2-methyl-1H-indol-3-yl)acetic acid, reference compound]
LNCaP-AKR1C3 cells
  inhibition of testosterone formation: robust inhibition

## COc1ccc2c(c1)c(CC(=O)NS(=O)(=O)C(F)(F)F)c(C)n2C(=O)c1ccc(Cl)cc1 [Compound 15]
AKR1C1
  IC50 ratio AKR1C1/AKR1C3 (value in parentheses): > 135
AKR1C4
  IC50 ratio AKR1C4/AKR1C3 (value in parentheses): > 135

## COC(=O)Cc1c(C)n(C(=O)c2ccc(Cl)cc2)c2ccc(OC)cc12 [Compound 10]
AKR1C3
  loss of inhibitory potency for AKR1C3: 57 fold

## COC(=O)Cc1c(C)n(C(=O)c2ccc(OC)cc2)c2ccc(OC)cc12 [Compound 13]
AKR1C2
  IC50 Ratio 1C2/1C3: >12

## COc1ccc2c(c1)c1c(n2C(=O)c2ccc(Cl)cc2)CCC(C(=O)NS(C)(=O)=O)C1 (centres unmarked) [Compound 63, 9-(4-Chlorobenzoyl)-6-methoxy-N-(methylsulfonyl)-2,3,4,9-tetrahydro-1H-carbazole-3-carboxamide]
AKR1C2
  selectivity for AKR1C3 over AKR1C2: 20 fold
  IC50 Ratio 1C2/1C3: > 20

## CCC(=O)Cc1cn(C(=O)OC)c2ccc(OC)cc12 [Compound 43]
AKR1C2
  IC50 Ratio 1C2/1C3: >4

## COc1ccc2c(c1)c1c(n2C(=O)c2ccc(Cl)cc2)CCC(C(=O)O)C1 (centres unmarked) [Compound 61, 9-(4-Chlorobenzoyl)-6-methoxy-2,3,4,9-tetrahydro-1H-carbazole-3-carboxylic Acid]
oCOX-1
  IC50: 0.75 µM
Mouse COX-2
  wt mCOX 2 plateau of inhibition (P @ %): 61.4%

## COc1ccc2c(c1)c(C)c(CC(C)(C)C(=O)O)n2C(=O)c1ccc(Cl)cc1 [Compound 48, 3-(1-(4-Chlorobenzoyl)-5-methoxy-3-methyl-1H-indol-2-yl)-2,2-dimethylpropanoic Acid]
Ovine COX-1
  inhibition at 25 µM: ≤ 34%
Mouse COX-2
  inhibition at 25 µM: ≤ 34%

## CCc1c(CCC(=O)O)n(C(=O)c2ccc(Cl)cc2)c2ccc(OC)cc12 [Compound 47, 3-(1-(4-Chlorobenzoyl)-3-ethyl-5-methoxy-1H-indol-2-yl)propanoic Acid]
Mouse COX-2
  inhibition at 25 µM: ≤ 34%
